Experimental data: ChEMBL document CHEMBL2176983, “Hispidin analogue davallialactone attenuates carbon tetrachloride-induced hepatotoxicity in mice” (J Nat Prod, 2012)
The source made the active and inactive calls. No cut-off for these calls is given here.

Tests used:
Type in all cases: functional, organism-based
[1] = tested on: Mus musculus; assay: Hepatoprotective activity in CCL4-induced FVB mouse assessed as effect on CYP2E1 expression at 2.5 to 10 mg/kg, sc administered for 3 consecutive days prior CCL4 challenge measured 12 to 24 hrs post challenge by Western blot method relative to control
[2] = tested on: Mus musculus; assay: Hepatoprotective activity in CCL4-induced FVB mouse assessed as decrease in cleaved caspase3-positive hepatocytes at 2.5 to 10 mg/kg, sc administered for 3 consecutive days prior CCL4 challenge measured 24 hrs post challenge by immunofluorescence staining method relative to control; settings: Hepatocyte
[3] = tested on: Mus musculus; assay: Hepatoprotective activity in CCL4-induced FVB mouse assessed as decrease in liver macrophages at 2.5 to 10 mg/kg, sc administered for 3 consecutive days prior CCL4 challenge measured 24 hrs post challenge by immunofluorescence staining method relative to control
[4] = tested on: Mus musculus; assay: Hepatoprotective activity in CCL4-induced FVB mouse assessed as increase in HO-1 expression at 2.5 to 10 mg/kg, sc administered for 3 consecutive days prior CCL4 challenge measured 12 to 24 hrs post challenge by Western blot method relative to control
[5] = tested on: Mus musculus; assay: Hepatoprotective activity in CCL4-induced FVB mouse assessed as decrease in COX2 expression at 2.5 to 10 mg/kg, sc administered for 3 consecutive days prior CCL4 challenge measured 12 to 24 hrs post challenge by Western blot method relative to control
[6] = tested on: Mus musculus; assay: Hepatoprotective activity in CCL4-induced FVB mouse assessed as decrease in iNOS expression at 2.5 to 10 mg/kg, sc administered for 3 consecutive days prior CCL4 challenge measured 12 to 24 hrs post challenge by Western blot method relative to control
[7] = tested on: Mus musculus; assay: Hepatoprotective activity in CCL4-induced FVB mouse assessed as decrease in serum TNFalpha level at 2.5 to 10 mg/kg, sc administered for 3 consecutive days prior CCL4 challenge measured 12 to 24 hrs post challenge by ELISA relative to control
[8] = tested on: Mus musculus; assay: Hepatoprotective activity in CCL4-induced FVB mouse assessed as increase in CYP2E1 p-nitrophenol activity at 2.5 to 10 mg/kg, sc administered for 3 consecutive days prior CCL4 challenge measured 12 to 24 hrs post challenge relative to control
[9] = tested on: Mus musculus; assay: Hepatoprotective activity in CCL4-induced FVB mouse assessed as restoration of Cu/Zn SOD expression at 2.5 to 10 mg/kg, sc administered for 3 consecutive days prior CCL4 challenge measured 12 to 24 hrs post challenge by Western blot method relative to control
[10] = tested on: Mus musculus; assay: Hepatoprotective activity in CCL4-induced FVB mouse assessed as reduction in serum MDA level at 2.5 to 10 mg/kg, sc administered for 3 consecutive days prior CCL4 challenge measured 12 to 24 hrs post challenge relative to control
[11] = tested on: Mus musculus; assay: Hepatoprotective activity in CCL4-induced FVB mouse assessed as reduction in ROS level at 10 mg/kg, sc administered for 3 consecutive days prior CCL4 challenge measured 12 to 24 hrs post challenge by DHE-labeling method relative to control; parameters: dose 10 mg/kg
[12] = tested on: Mus musculus; assay: Hepatoprotective activity in sc dosed CCL4-induced FVB mouse assessed as reduction in liver necrosis at administered for 3 consecutive days prior CCL4 challenge measured 24 hrs post challenge by hematoxylin/eosin-staining method relative to control
[13] = tested on: Mus musculus; assay: Hepatoprotective activity in CCL4-induced FVB mouse assessed as reduction in liver necrosis at 10 mg/kg, sc administered for 3 consecutive days prior CCL4 challenge measured 12 hrs post challenge by hematoxylin/eosin-staining method relative to control; parameters: dose 10 mg/kg
[14] = tested on: Mus musculus; assay: Hepatoprotective activity in CCL4-induced FVB mouse assessed as reduction in liver necrosis at 2.5 to 10 mg/kg, sc administered for 3 consecutive days prior CCL4 challenge measured 12 to 24 hrs post challenge by hematoxylin/eosin-staining method relative to control
[15] = tested on: Mus musculus; assay: Hepatoprotective activity in FVB mouse assessed as reduction of CCL4-induced increase of serum AST level at 2.5 to 10 mg/kg, sc administered for 3 consecutive days prior CCL4 challenge measured 12 to 24 hrs post challenge
[16] = tested on: Mus musculus; assay: Hepatoprotective activity in FVB mouse assessed as reduction of CCL4-induced increase of serum ALT level at 2.5 to 10 mg/kg, sc administered for 3 consecutive days prior CCL4 challenge measured 12 to 24 hrs post challenge

Q: `CC1=CC(=O)[C@H](c2c(O)cc(/C=C/c3ccc(O)c(O)c3)oc2=O)[C@@H](c2ccc(O)c(O)c2)O1` was tested. Which Activity [1] did it give?
A: inactive

Q: What about the Activity [2] of the same compound?
A: Active

Q: What about the Activity [3] of the same compound?
A: Active

Q: What about the Activity [4] of the same compound?
A: Active

Q: And the Activity [5]?
A: Active

Q: And the Activity [6]?
A: Active

Q: And the Activity [7]?
A: Active

Q: And the Activity [8]?
A: Active

Q: And the Activity [9]?
A: Active

Q: What about the Activity [10] of the same compound?
A: Active

Q: What about the Activity [11] of the same compound?
A: Active

Q: What about the Activity [12] of the same compound?
A: Dose-dependent effect

Q: What about the Activity [13] of the same compound?
A: Active

Q: And the Activity [14]?
A: Active

Q: What about the Activity [15] of the same compound?
A: Active

Q: And the Activity [16]?
A: Active
